# Laboratory results reported in patent US10894036B2, “Use of marizomib for the treatment of central nervous system (CNS) cancers” (Celgene International II Sàrl, priority 2016, dated 2021).
# What was measured:
# [1] = tested on: WHO Grade IV Malignant Glioma; assay: Phase 1/2 MRZ + BEV and MRZ monotherapy in recurrent G4 MG: tumor response by RANO, PFS, OS; type: in vivo, human; conditions: for Best Response NE (2), patients: MRZ monotherapy ITT
# Excerpt: (§1) The drugs were infused on 28-Day Cycles.
# Tumor response, including PD activity, progression-free survival (PFS), and overall survival (OS) will be assessed. Tumor response will be assessed by the Investigators using RANO 2010 criteria. The overall confirmed response rate will be presented. The response rate, PFS, and OS will also be tabulated by dose cohorts in Part 1 Phase 1 and for all response-evaluable patients in Part 2 Phase 2 and Part 3 Phase 2. Endpoints of response based on tumor assessments will be calculated for subjects who received at least 3 doses of MRZ and had at least 1 post-dose tumor evaluation.
# [2] = molecular target: T1, caspase-like (C-L) proteasome activity (Homo sapiens, UniProt P28072); assay: Proteasome inhibition in packed whole blood: C-L; type: in vivo; conditions: PWB post-Marizomib infusion (peak effect)
# T1 construct: Change in proteasome activities in packed whole blood (PWB) lysates and peripheral blood mononuclear cell (PBMC) lysates; from tissue; host or cells: packed whole blood lysates of dosed glioma patients
# Excerpt: as §1
# Change in proteasome activities in packed whole blood (PWB) lysates and peripheral blood mononuclear cell (PBMC) lysates, comparing pre-drug and post drug levels on Days 1, 8, and 15 of Cycle 1; Days 1 and 15 of each Cycle thereafter; and at the End-of Treatment Visit.
# The laboratory correlates include assessment of the percentage inhibition of proteasome function (evaluated by measurement of CT-L, T-L and C-L activity in blood isolates such as whole blood and PBMC lysates.
# PD analysis will include change in proteasome activities (whole blood lysates and PBMC lysates) by comparing pre-drug and post drug levels on Days 1, 8, and 15 (i.e., for each dose) of Cycle 1 and Days 1 and 15 (i.e., for the first and last doses) of each cycle thereafter.
# [3] = MRZ + BEV N = 10, MRZ monotherapy N = 7
# [4] = MRZ + BEV N = 22, MRZ monotherapy N = 18
# [5] = MRZ monotherapy 0.8 mg/m^2, first 15 recurrent glioma patients
smiles,measurement,setting,value
C[C@@]12OC(=O)[C@]1([C@@H](O)[C@@H]1C=CCCC1)NC(=O)[C@@H]2CCCl [marizomib],OS 6 mo %,[1]; All Patients,64%
same,OS 9 mo %,[1]; All Patients,64%
same,"Median OS, methylated MGMT promoter",[1]; [3],Undefined
same,"Median PFS, methylated MGMT promoter",[1]; [3],1.7 Months
same,"OS 6 Months, methylated",[1]; [3],83%
same,"OS 9 Months, methylated",[1]; [3],83%
same,"Median OS, unmethylated MGMT promoter",[1]; [4],Undefined
same,"Median PFS, unmethylated MGMT promoter",[1]; [4],1.9 Months
same,"OS 6 Months, unmethylated",[1]; [4],65%
same,"OS 9 Months, unmethylated",[1]; [4],65%
same,"partial remission, patients",[1]; [5],1
same,"stable disease, additional patients",[1]; [5],2
same,"Best Response NE (2), patients","[1]; methylated, N = 7",0
same,"Best Response NE (2), patients","[1]; unknown, N = 5",1
same,"Best Response NE (2), patients","[1]; unmethylated, N = 18",1
same,"PFS 3 mo, methylated","[1]; MRZ monotherapy, N = 7",40%
same,"PFS 3 mo, unmethylated","[1]; MRZ monotherapy, N = 18",20%
same,patients on the study for ≥4 cycles,"[1]; MRZ monotherapy, N = 30",Six
same,progression on marizomib alone,"[1]; MRZ monotherapy, N = 30",most patients demonstrated rapid progression
same,"Best Response, Pt 0511","[1]; MRZ monotherapy, 2nd recurrence, current cycle 10",PR (≥50% decrease compared with baseline in the sum of products of perpendicular diameters of all measurable enhancing lesions sustained for at least 4 weeks)
same,OS 6 mo %,[1]; Methylated MGMT Promoter,83%
same,OS 9 mo %,[1]; Methylated MGMT Promoter,83%
same,OS 6 mo %,[1]; Unmethylated MGMT Promoter,65%
same,OS 9 mo %,[1]; Unmethylated MGMT Promoter,65%
same,patients found to respond to marizomib monotherapy,[1]; ≥ stable disease and >4 cycles (Table 38),four
same,inhibition at […]2,[2]; 0.55 mg/m^2,21 ± 7.8%
same,inhibition at 0.7 mg/m2,[2]; 0.7 mg/m^2,50.4 ± 9.1%
same,inhibition at 0.8 mg/m2,[2]; 0.8 mg/m^2,51.9 ± 8.3%
